In paper PMC5059489, “Mechanistic evaluation and transcriptional signature of a glutathione S-transferase omega 1 inhibitor” (Nature Communications, 2016):
Like-named read-outs stand apart in the source and are kept apart here.

What was measured:
GSTO1 [1] = molecular target: T1, GSTO1 (Homo sapiens, UniProt P78417); experiment: GSTO1 substrate assay (reduction of 4-NPG)
T1 sequence (P78417 1-241): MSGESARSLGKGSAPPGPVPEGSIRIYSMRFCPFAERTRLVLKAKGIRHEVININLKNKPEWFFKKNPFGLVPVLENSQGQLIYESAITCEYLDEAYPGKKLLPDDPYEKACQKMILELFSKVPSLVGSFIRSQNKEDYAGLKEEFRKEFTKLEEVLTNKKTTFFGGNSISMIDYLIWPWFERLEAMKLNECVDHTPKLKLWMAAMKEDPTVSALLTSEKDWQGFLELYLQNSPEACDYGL
Procedure: For activity screening, we adapted a GSTO1 substrate assay that relies on the quantification of the reduction of S-(4-nitrophenacyl)glutathione (4-NPG), a GSTO1-specific substrate[17], using recombinant human GSTO1 in a high-throughput screening format.
Enzyme activity was measured by monitoring the reduction of 4-NPG to 4-nitroacetophenone by GSTO1.

GSTO1 [2] = molecular target: T1, GSTO1; experiment: In-gel fluorescence competitive CMFDA binding assay, recombinant GSTO1; conditions: inhibition of CMFDA binding
Source text: (§1) Primary screening of GSTO inhibitors was based on competitive inhibition of CMFDA binding to endogenous GSTO. Briefly, HCT116^p53+/+ cells (4 × 10^4 per well) were coated in a 12-well plate. […] Cells were then washed with PBS and lysed using Cell Lytic M buffer (Sigma). […] Gels were immediately scanned on a Typhoon variable mode imager (Amersham Bioscience). Quantification of fluorescent band intensity was done using Image Quant 5.2 software.

endogenous GSTO1 = molecular target: T2, endogenous GSTO1 (Homo sapiens, UniProt P78417); experiment: In-gel fluorescence competitive CMFDA binding assay, endogenous GSTO1 in HCT116; conditions: 10 µM; inhibition of CMFDA binding, HCT116
T2 sequence (P78417 1-241): T1 sequence (P78417 1-241)
Source text: as §1

[3] = read-out: GSTO substrate assay IC50, cluster screening tables

SMILES | GSTO substrate assay % Inhibition at 10 µM (GSTO1 [1]) [%] | IC50 (GSTO1 [1]; [3]) [nM] | GSTO binding assay (% Inhibition at 10 µM) Recombinant (GSTO1 [2]) [%] | GSTO binding assay (% Inhibition at 10 µM) Endogenous (endogenous GSTO1) [%] | IC50 (GSTO1 [1]; Substrate assay IC50, pilot screening) [nM]
CC(C)c1ccc(C(NC(=O)CCl)C(C)C)cc1 (centres unmarked) [C3-6] | 56.2 | 7880 | 53.7 | 51.3 | –
CCOc1ccc(NC(=O)CCl)cc1S(=O)(=O)N1CCCCC1 [C1-30] | 75 | 79 | 75.9 | 80.8 | –
O=C(CCl)Nc1ccccc1NC(=O)CCl [4c] | – | – | – | – | 80800
O=C(CCl)Nc1ccccc1N1CCOCC1 [C1-21] | -8.4 | – | 69.9 | 58.2 | –
COC(=O)c1ccc(C(=O)OC)c(NC(=O)CCl)c1 [C1-8] | 100.9 | 5680 | 61.2 | 56.5 | –
O=C(CCl)Nc1sc2c(c1C(=O)c1ccccc1)CCCC2 [C2-20] | 91.1 | – | 68.3 | 39.6 | –
O=C(CCl)NCc1ccccc1CN1CCOCC1 [C3-1] | 11.1 | – | 6.0 | 7.3 | –
CCOc1ccc(NC(=O)NC(=O)CCl)cc1OCC [C3-19] | 99.5 | 508 | 59.2 | 65.2 | –
Cc1cc(C)c(-c2csc(NC(=O)CCl)n2)cc1C [C2-23] | 26.4 | – | 76.0 | – | –
Cc1c(-c2ccccc2)sc(NC(=O)CCl)c1C(=O)N1CCOCC1 [C2-15] | 87.8 | 360 | 63.2 | 74.2 | –
Cc1nn(Cc2ccccc2)c(C)c1CNC(=O)CCl [C3-30] | 83.1 | – | 10.6 | 14.5 | –
CCOC(=O)c1sc(-c2ccccc2)cc1NC(=O)CCl [C2-11] | -1.5 | – | 58.2 | 19.9 | –
O=C(CCl)NCc1cc([N+](=O)[O-])ccc1O [C3-3] | 93.2 | – | 47.9 | 52.0 | –
COCCN(C(=O)CCl)c1c(N)n(Cc2ccccc2)c(=O)[nH]c1=O [C4-18] | 14.2 | – | 4.5 | 18.7 | –
O=C(CCl)N1CCN(S(=O)(=O)c2ccc(F)c(F)c2)CC1 [C5-14] | 91.8 | 496 | 61.2 | 60.9 | –
CCOc1ccc(OCCNC(=O)CCl)cc1 [C3-13] | 62.6 | – | 25.1 | – | –
O=C(CCl)NCC1(N2CCCCC2)CCCCC1 [C3-31] | 0.3 | – | -13.7 | 23.0 | –
CCC1(c2ccccc2)NC(=O)N(NC(=O)CCl)C1=O (centres unmarked) [C2-29] | 42.7 | – | 13.5 | 65.0 | –
O=C(CCl)Nc1c(Br)cc([N+](=O)[O-])cc1Br [C1-3] | -4.9 | – | 0.9 | 3.8 | –
CCN(CC)c1ccc(S(=O)(=O)N2CCOCC2)cc1NC(=O)CCl [C1-32] | 84.2 | – | 4.4 | 48.2 | –
Cc1cccc(NC(=S)NC(NC(=O)CCl)C(Cl)(Cl)Cl)c1 (centres unmarked) [C3-27] | 54.2 | 1650 | 63.4 | 63.8 | –
Cc1ccc(CSCCNC(=O)CCl)cc1 [C3-15] | 5.1 | – | 35.7 | 86.9 | –
CCOC(=O)c1c(-c2ccccc2)csc1NC(=S)NC(=O)CCl [C3-26] | 69.5 | – | 68.2 | 42.2 | –
CN(CCOc1ccc(Cl)cc1)C(=O)CCl [C4-9] | 20.7 | – | 66.7 | 43.5 | –
Cc1cc(C)c(NC(=O)CNC(=O)CCl)c(C)c1 [C3-24] | 72.3 | – | 29.2 | 58.8 | –
O=C(CCl)NC(=O)c1cccc2ccccc12 [C3-18] | 0.6 | – | 0.3 | 37.5 | –
COc1cc2c(cc1OC)CN(C(=O)CCl)CC2 [C5-17] | 69.5 | – | 9.4 | – | –
CCOC(=O)c1c(-c2ccc(OC)c(OC)c2)csc1NC(=O)CCl [C2-12] | 3.4 | – | 74.9 | 59.8 | –
COc1cc(C(=O)NNC(=O)CCl)cc(OC)c1OC [C3-22] | 10.4 | – | -2.4 | -12.1 | –
O=C(CCl)Nc1ccc(OC(F)F)cc1 [C1-6] | 22.7 | – | 45.6 | 87.6 | –
